Results: the NIST ThermoML archive (doi:10.1021/je700577t)
± gives the expanded uncertainty stated by the source.

Tests used:
[1] = refractive index (Na D-line) (dimensionless); settings: 101.33 kPa, Liquid, Standard Abbe refractometry
[2] = 101.33 kPa, Liquid

refractive index ([1]; 293.15 K)	mass density ([2]; 293.15 K)	refractive index ([1]; 292 K)	mass density ([2]; 294 K)	mass density ([2]; 288 K)	Compound
1.43143 ± 0.0007	1032.83 ± 0.48 kg/m3				CC(O)CO (configuration not stated) [1,2-propanediol]
		1.47247 ± 0.0009	840.24 ± 2.8 kg/m3		C=C(C)C1CC=C(C)CC1 (configuration not stated) [1-methyl-4-(1-methylethenyl)cyclohexene]
1.46272 ± 0.0009				870.04 ± 2.7 kg/m3	C=CC(C)(O)CCC=C(C)C (configuration not stated) [3,7-dimethyl-1,6-octadien-3-ol]
1.43184 ± 0.0007	1115.52 ± 0.71 kg/m3				OCCO [1,2-ethanediol]
1.45314 ± 0.0007				1127.43 ± 0.74 kg/m3	OCCOCCOCCO [triethylene glycol]

Compound	refractive index ([1]; 293.15 K)	mass density ([2]; 293.15 K)	refractive index ([1]; 292 K)	mass density ([2]; 294 K)	mass density ([2]; 288 K)
OCCOCCO [diethylene glycol]	1.44724 ± 0.0007				1119.74 ± 0.72 kg/m3
